Each structure is given as a SMILES string. Like-named read-outs stand apart in the source and are kept apart here.

A short description of one data set: physchem. The protocol:
The aqueous solubility of zoledronic acid and disodium zoledronate tetrahydrate was determined. One gram of the test compound was measured in to a beaker. Demineralized water (pH 5.5) was then added in small increments to the test compound, and sonification was applied to the mixture. The procedure was continued until complete dissolution was achieved. Full dissolution was determined to have been reached when a clear solution was present with no visible material. The volume of water required to reach full dissolution was used to calculate a solubility value expressed in grams per 100 mL. The procedure was performed for each compound.

The subject of data set [1] is rat complete Freund's adjuvant (CFA) model of inflammatory pain. Format: in vivo, Sprague-Dawley rats. The note with it: for improvement in pain threshold from baseline: day three. The protocol: The effect of orally administered zoledronic acid on inflammatory pain was examined using the rat complete Freund's adjuvant (CFA) model. Inflammatory pain was induced by injection of 100% CFA in a 75 μL volume into the left hind paws of Sprague-Dawley rats on day 0, followed by assessments on days 1-3. Animals were orally administered vehicle (control), zoledronic acid 18 mg/m^2 (or 3 mg/kg), zoledronic acid 120 mg/m^2 (or 20 mg/kg), or zoledronic acid 900 mg/m^2 (or 150 mg/kg) daily on days 1-3. Drug was dissolved in distilled water and prepared fresh daily. Animals were fasted prior to dosing. Under current FDA guidelines for extrapolating starting dosages from animals to humans, dosages expressed in mg/m^2 are considered equivalent between mammalian species. Thus, for example, 18 mg/m^2 in a rat is considered equivalent to 18 mg/m^2 in a human being, while 3 mg/kg in a rat may not be equivalent to 3 mg/kg in a human being.
Values for inflammatory pain (mechanical hyperalgesia) in the vehicle and drug-treated animals were obtained on day 0 prior to CFA injection, and at baseline and post-treatment on days 1-3. Pain was assessed using a digital Randall-Selitto device (dRS; IITC Life Sciences, Woodland Hills, Calif.). Animals were placed in a restraint sling that suspended the animal, leaving the hind limbs available for testing. Paw compression threshold was measured by applying increasing pressure to the plantar surface of the hind paw with a dome-shaped tip placed between the 3rd and 4th metatarsus. Pressure was applied gradually over approximately 10 seconds. Measurements were taken from the first observed nocifensive behavior of vocalization, struggle or withdrawal. A cut-off value of 300 g was used to prevent injury to the animal.
Reversal of inflammatory pain was calculated according to the formula:
% reversal=(Post-treatment−Post-CFA baseline)/(Pre-CFA baseline−Post-CFA baseline)×100.
The experiment was carried out using 9-10 animals per group.

Data set [2] deals with rat tibia fracture model of complex regional pain syndrome (CRPS). Kind of data set: Rat tibia fracture model of complex regional pain syndrome (CRPS): hindpaw pain, weight bearing, edema, warmth. Format: in vivo. The note with it: oral 18 mg/m^2/day (3 mg/kg/day) for 28 days. The protocol:
The effect of orally administered zoledronic acid was examined in the rat tibia fracture model of complex regional pain syndrome (CRPS). CRPS was induced in the rats by fracturing the right distal tibias of the animals and casting the fractured hindpaws for 4 weeks, as described in Guo T Z et al. (Pain. 2004; 108:95-107).
Animals were orally administered either vehicle (control) or zoledronic acid, in a dosage of 18 mg/m^2/day (3 mg/kg/day) for 28 days, starting on the day of fracture and casting. Drug was dissolved in distilled water and administered by gavage. Animals were fasted for 4 hours before and 2 hours after dosing. At the end of the 28-day period, casts were removed, and on the following day, the rats were tested for hindpaw pain, edema, and warmth.
Pain was assessed by measuring hyperalgesia, and weight bearing.
To measure hyperalgesia, an up-down von Frey testing paradigm was used. Rats were placed in a clear plastic cylinder (20 cm in diameter) with a wire mesh bottom and allowed to acclimate for 15 minutes. The paw was tested with one of a series of eight von Frey hairs ranging in stiffness from 0.41 g to 15.14 g. The von Frey hair was applied against the hindpaw plantar skin at approximately midsole, taking care to avoid the tori pads. The fiber was pushed until it slightly bowed and then it was jiggled in that position for 6 seconds. Stimuli were presented at an interval of several seconds. Hindpaw withdrawal from the fiber was considered a positive response. The initial fiber presentation was 2.1 g and the fibers were presented according to the up-down method of Dixon to generate six responses in the immediate vicinity of the 50% threshold. […].
An incapacitance device (IITC Inc. Life Science, Woodland, Calif., USA) was used to measure hindpaw weight bearing, a postural effect of pain. The rats were manually held in a vertical position over the apparatus with the hindpaws resting on separate metal scale plates and the entire weight of the rat was supported on the hindpaws. The duration of each measurement was 6 seconds and 10 consecutive measurements were taken at 60-second intervals. Eight readings (excluding the highest and lowest ones) were averaged to calculate the bilateral hindpaw weight-bearing values. Weight bearing data were analyzed as the ratio between right (fracture) and left hindpaw weight bearing values ((2R/(R+L))×100%).
A laser sensor technique was used to determine the dorsal-ventral thickness of the hindpaw. Before baseline testing the bilateral hindpaws were tattooed with a 2 to 3 mm spot on the dorsal skin over the midpoint of the third metatarsal. […]
The temperature of the hindpaw was measured using a fine wire thermocouple (Omega, Stanford, Conn., USA) applied to the paw skin. […]

Data set [3] has as its system rat complete Freund's adjuvant (CFA) model of arthritis pain. Kind of data set: Rat complete Freund's adjuvant (CFA) model of arthritis pain, paw compression threshold (Randall-Selitto). The note with it: evaluated day 14 post CFA. The class given is in vivo. The protocol: The effect of orally administered zoledronic acid on arthritis pain was examined in the rat complete Freund's adjuvant (CFA) model of arthritis pain. In this model, injection of 100% complete Freund's adjuvant (CFA) in a […] volume into the left hind paws is followed by a 10-14 day period to allow for the development of arthritis pain. Animals were orally administered vehicle (control), zoledronic acid 54 mg/m^2 (or 9 mg/kg), or zoledronic acid 360 mg/m^2 (or 60 mg/kg), divided in three equal daily doses on the first three days post CFA injection. Drug was dissolved in distilled water and prepared fresh daily. Animals were fasted prior to dosing.
Arthritis pain (mechanical hyperalgesia) in the vehicle and drug-treated animals was evaluated on day 14 post CFA injection using a digital Randall-Selitto device (dRS; IITC Life Sciences, Woodland Hills, Calif.). Animals were placed in a restraint sling that suspended the animal, leaving the hind limbs available for testing. Paw compression threshold was measured by applying increasing pressure to the plantar surface of the hind paw with a dome-shaped tip placed between the 3rd and 4th metatarsus. Pressure was applied gradually over approximately 10 seconds. […]
Reversal of arthritis pain in the ipsilateral (CFA-injected) paw was calculated according to the formula: […]

Where [4] appears, read: oral 18 mg/m^2 (3 mg/kg) daily on days 1-3.
Setting [5] is: oral 900 mg/m^2 (150 mg/kg) daily on days 1-3.

Compound `O.O.O.O.O=P([O-])(O)C(O)(Cn1ccnc1)P(=O)([O-])O.[Na+].[Na+]` [disodium zoledronate tetrahydrate] displayed an aqueous solubility in the data set “physchem” (pH 5.5) not below 12.5 g/100 mL.

By solubility is commonly meant how much of the substance goes into solution per volume. On to `O=P(O)(O)C(O)(Cn1ccnc1)P(=O)(O)O` [zoledronic acid], for which the “reversal of inflammatory pain” value in data set [1] (setting [4]) came to 29%; in data set [1] (setting [5]), 48%. Further, the “improvement in pain threshold from baseline” value in data set [1] (setting [4]) is 49%; in data set [1] (setting [5]) it was 83%. The “paw compression thresholds versus vehicle” value in data set [1] (oral 18 mg/m^2, entire measurement period after 30 minutes from start of treatment) is “higher than for vehicle”; in data set [1] (oral 120 mg/m^2 (20 mg/kg) daily, all time points during the assessment period) it was “approximately equal or inferior to vehicle”; in data set [1] (two higher doses (120 and 900 mg/m^2), first two days of dosing), “lower than vehicle”. Besides, in data set [1] (oral 900 mg/m^2 (150 mg/kg) daily on days 1-3, two days after cessation of dosing), the toxicity result was “significant toxicity necessitating euthanization of all the animals in this group”. The “reduction of hindpaw warmth versus vehicle” value in data set [2] stood at 5%. For the same compound, in data set [2], the “reversal of fracture induced pain (von Frey threshold) as compared to vehicle” value was 77%. Further, the “hindlimb weight bearing, % of normal” value in data set [2] (fracture hindlimb) is 86 % of normal. Further, the “reduction of hindpaw edema versus vehicle” value in data set [2] (hindpaw thickness) was found to be 60%. For the same compound, the solubility in “physchem” (pH 5.5, water, thermodynamic from solid) was not below 2500 µg/mL. In addition, the results for the “reversal of arthritis pain” value in data set [3] (oral 54 mg/m^2 (9 mg/kg) in three equal daily doses) and in data set [3] (oral 360 mg/m^2 (60 mg/kg) in three equal daily doses) were 33% and 54%, respectively.

Values taken from US20130303485A1, “Compositions for Oral Administration of Zoledronic Acid or Related Compounds for Treating Disease” (priority 2012, published 2013).
